Experimental data published in patent US10597388B2, “Pyridazinone herbicides” (FMC CORPORATION, priority 2014, dated 2020).

Legend:
Format in all cases: in vivo
[1] = test system: sedge, umbrella (small-flower umbrella sedge, Cyperus difformis); experiment: Test B flooded paddy test; conditions: 250 g ai/ha, Flood; visual rating on scale of 0 to 100 where 0 is no effect and 100 is complete control; 13 to 15 d after treatment
Summary of the method: (§1)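 Ratings use a 0-100 visual scale, where 100 is complete control, and compare treated plants with controls after 13 to 15 d of greenhouse growth. Compound went straight into paddy water kept 3 cm over the soil surface, applied to seedlings at the 2-leaf stage.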

[2] = test system: ducksalad (Heteranthera limosa); experiment: Test B flooded paddy test; conditions: 250 g ai/ha, Flood; visual rating on scale of 0 to 100 where 0 is no effect and 100 is complete control; 13 to 15 d after treatment
Summary of the method: as §1

[3] = test system: barnyardgrass (Echinochloa crus-galli); experiment: Test B flooded paddy test; conditions: 250 g ai/ha, Flood; visual rating on scale of 0 to 100 where 0 is no effect and 100 is complete control; 13 to 15 d after treatment
Summary of the method: as §1

rice (Oryza sativa) = experiment: Test B flooded paddy test; conditions: 250 g ai/ha, Flood; visual rating on scale of 0 to 100 where 0 is no effect and 100 is complete control; 13 to 15 d after treatment
Summary of the method: as §1

[4] = test system: barnyardgrass (Echinochloa crus-galli); experiment: Test A greenhouse herbicide test, pre- and postemergence
Summary of the method: (§2)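 Visual injury ratings, 0 (no effect) to 100 (complete control), versus untreated plants after roughly 10 d in a greenhouse. Compounds, formulated in a surfactant-containing non-phytotoxic solvent, were sprayed on loam–sand soil after sowing (pre) or on one- to two-leaf plants 2–10 cm tall (post).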

corn (Zea mays) = experiment: as above; conditions: Postemergence; for Plant response rating, Corn: 125 g ai/ha, visual rating after approx. 10 d, 0 to 100 scale (0 no effect, 100 complete control); for Corn plant response rating: 500 g ai/ha, 0 to 100 scale, 0 is no effect, 100 is complete control
Summary of the method: as §2

[5] = test system: ryegrass, Italian (Italian ryegrass, Lolium multiflorum); experiment: as above
Summary of the method: as §2

[6] = test system: oat, wild (wild oat, Avena fatua); experiment: Test C greenhouse herbicide test, postemergence
Summary of the method: (§3)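 Seedlings are raised in pots of peat moss–vermiculite medium with starter nutrients, then receive postemergence test chemical at the 1- to 4-leaf stage. They are kept in the greenhouse 13 to 15 d and scored visually versus controls, 0 meaning no effect and 100 complete control.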

kochia (Kochia scoparia) = experiment: Test C greenhouse herbicide test, postemergence
Summary of the method: as §3

[7] = test system: chickweed (common chickweed, Stellaria media); experiment: Test C greenhouse herbicide test, postemergence
Summary of the method: as §3

[8] = test system: blackgrass (Alopecurus myosuroides); experiment: Test A greenhouse herbicide test, postemergence; conditions: for Plant response rating, Blackgrass: 125 g ai/ha, visual rating after approx. 10 d, 0 to 100 scale (0 no effect, 100 complete control); for Blackgrass plant response rating: 500 g ai/ha, 0 to 100 scale, 0 is no effect, 100 is complete control
Summary of the method: (§4)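 Scores are visual injury ratings from 0 (no effect) to 100 (complete control) versus untreated plants, taken roughly 10 d after treatment in the greenhouse. Treatment was postemergence, on one- to two-leaf plants 2–10 cm high growing in a loam soil/sand mix.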

[9] = test system: galium (catchweed bedstraw, Galium aparine); experiment: Test A greenhouse herbicide test, postemergence; conditions: for Plant response rating, Galium: 125 g ai/ha, visual rating after approx. 10 d, 0 to 100 scale (0 no effect, 100 complete control); for Galium plant response rating: 500 g ai/ha, 0 to 100 scale, 0 is no effect, 100 is complete control
Summary of the method: as §4

[10] = Postemergence, 125 g ai/ha, visual rating after approx. 10 d, 0 to 100 scale (0 no effect, 100 complete control)
[11] = Postemergence, 500 g ai/ha, 0 to 100 scale, 0 is no effect, 100 is complete control
[12] = Preemergence, 125 g ai/ha, 0 to 100 scale where 0 is no effect and 100 is complete control
[13] = Preemergence, 500 g ai/ha, 0 to 100 scale, 0 no effect, 100 complete control
[14] = Postemergence, 31 g ai/ha, 0 to 100 scale (0 no effect, 100 complete control)
[15] = Postemergence, 125 g ai/ha, scale 0 to 100, 0 is no effect, 100 is complete control
[16] = Postemergence, 250 g ai/ha, scale 0 to 100, 0 no effect, 100 complete control, 13 to 15 d
[17] = postemergence, 62 g ai/ha, scale 0 to 100, 0 no effect, 100 complete control

SMILES | Plant response rating, Sedge, Umbrella [1] | Plant response rating, Ducksalad [2] | Plant response rating, Barnyardgrass [3] | Plant response rating, Rice (rice (Oryza sativa)) | Plant response rating, Barnyardgrass [4, 10] | Barnyardgrass plant response rating [4, 11] | Barnyardgrass plant response rating [4, 12] | Plant response rating, Barnyardgrass [4, 13] | Plant response rating, Corn (corn (Zea mays)) | Corn plant response rating (corn (Zea mays)) | Ryegrass, Italian plant response rating [5, 11] | Ryegrass, Italian plant response rating [5, 12] | Plant response rating, Ryegrass, Italian [5, 13] | Oat, Wild plant response rating [6, 14] | Plant response rating, Oat, Wild [6, 15] | Plant response rating, Oat, Wild [6, 16] | Oat, Wild plant response rating [6, 17] | Kochia plant response rating (kochia (Kochia scoparia); [14]) | Plant response rating, Kochia (kochia (Kochia scoparia); [15]) | Plant response rating, Kochia (kochia (Kochia scoparia); [16]) | also measured
Cc1nn(C)c(=O)c(-c2c(C)sc3ccc(Br)cc23)c1O [Compound 22] | 0 | 0 | 0 | 0 | 30 | 50 | 10 | 70 | 0 | 0 | 100 | 100 | 100 | 40 | 80 | 80 | 50 | 90 | 95 | 95 | Plant response rating, Ryegrass, Italian [5, 10]: 80; Kochia plant response rating (kochia (Kochia scoparia); [17]): 95; Chickweed plant response rating [7, 14]: 90; Plant response rating, Chickweed [7, 15]: 95; Plant response rating, Chickweed [7, 16]: 98; Chickweed plant response rating [7, 17]: 90; Plant response rating, Blackgrass [8]: 50; Blackgrass plant response rating [8]: 70; Plant response rating, Galium [9]: 90; Galium plant response rating [9]: 100
Cc1ccc2ccccc2c1-c1c(O)c(Br)nn(C)c1=O [Compound 23] | 95 | 75 | 0 | 0 | 80 | 90 | 90 | 90 | 40 | 50 | 100 | 80 | 90 | 85 | 100 | 100 | 95 | 95 | 100 | 100 | Plant response rating, Ryegrass, Italian [5, 10]: 100; Kochia plant response rating (kochia (Kochia scoparia); [17]): 95; Chickweed plant response rating [7, 14]: 100; Plant response rating, Chickweed [7, 15]: 100; Plant response rating, Chickweed [7, 16]: 100; Chickweed plant response rating [7, 17]: 100; Plant response rating, Blackgrass [8]: 70; Blackgrass plant response rating [8]: 80; Plant response rating, Galium [9]: 100; Galium plant response rating [9]: 100
Cc1ccc2sc(C)c(-c3c(OC(=O)C(C)(C)C)c(C)nn(C)c3=O)c2c1 [Compound 26] | 0 | 0 | 0 | 0 | 10 | 30 | 0 | 10 | 0 | 0 | 90 | 30 | 70 | 60 | 95 | 90 | 80 | 80 | 90 | 100 | Plant response rating, Ryegrass, Italian ([5]; Postemergence, 125 g ai/ha, 0 to 100 scale where 0 is no effect and 100 is complete control): 60; Kochia plant response rating (kochia (Kochia scoparia); [17]): 70; Chickweed plant response rating [7, 14]: 95; Plant response rating, Chickweed [7, 15]: 100; Plant response rating, Chickweed [7, 16]: 100; Chickweed plant response rating [7, 17]: 95; Plant response rating, Blackgrass [8]: 30; Blackgrass plant response rating [8]: 70; Plant response rating, Galium [9]: 70; Galium plant response rating [9]: 90
